One assay concerns the target T1, human PRMT6 (Homo sapiens, UniProt Q96LA8).
T1 construct: Flag-PRMT6-His; made in house; host or cells: HEK 293F cells (BacMam baculovirus)
In words: PRMT6 Biochemical Assay (3H-SAM Flashplate, peptide substrate). An outline of the steps: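 Methylation of a biotin-tagged H4 (36-50) peptide by ³H-SAM was quantified by streptavidin Flashplate capture and scintillation counts (dpm/cpm). Before SAM/peptide addition, Flag-PRMT6-His was preincubated with compound for 30 min at room temperature in Bicine buffer, pH 7.6.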

In the next assay the target is T2, human PRMT1 (Homo sapiens, UniProt Q99873).
T2 construct: GST-tagged PRMT1; made in house; host or cells: High Five insect cells (baculovirus)
In words: PRMT1 Biochemical Assay (3H-SAM Flashplate, peptide substrate). To be noted: single experiment or average of multiple experiments. An outline of the steps:
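GST-tagged PRMT1 from baculovirus-infected cells, preincubated with compounds 30 min at room temperature in 20 mM Bicine pH 7.6, 1 mM TCEP, 0.005% BSG, 0.002% Tween 20. Reaction started with ³H-SAM plus biotinylated peptide, stopped with 300 µM cold SAM.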

The mark [1] stands for this setting: Biochemical IC50 PRMT6, single experiment or average of multiple experiments.
Setting [2] is: single experiment or average of multiple experiments, read-out: Biochemical IC50 PRMT6.

Counter-ions that a name gives are not always drawn. Like-named read-outs stand apart in the source and are kept apart here.

T2 sequence (Q99873 with tags, fused parts or gaps): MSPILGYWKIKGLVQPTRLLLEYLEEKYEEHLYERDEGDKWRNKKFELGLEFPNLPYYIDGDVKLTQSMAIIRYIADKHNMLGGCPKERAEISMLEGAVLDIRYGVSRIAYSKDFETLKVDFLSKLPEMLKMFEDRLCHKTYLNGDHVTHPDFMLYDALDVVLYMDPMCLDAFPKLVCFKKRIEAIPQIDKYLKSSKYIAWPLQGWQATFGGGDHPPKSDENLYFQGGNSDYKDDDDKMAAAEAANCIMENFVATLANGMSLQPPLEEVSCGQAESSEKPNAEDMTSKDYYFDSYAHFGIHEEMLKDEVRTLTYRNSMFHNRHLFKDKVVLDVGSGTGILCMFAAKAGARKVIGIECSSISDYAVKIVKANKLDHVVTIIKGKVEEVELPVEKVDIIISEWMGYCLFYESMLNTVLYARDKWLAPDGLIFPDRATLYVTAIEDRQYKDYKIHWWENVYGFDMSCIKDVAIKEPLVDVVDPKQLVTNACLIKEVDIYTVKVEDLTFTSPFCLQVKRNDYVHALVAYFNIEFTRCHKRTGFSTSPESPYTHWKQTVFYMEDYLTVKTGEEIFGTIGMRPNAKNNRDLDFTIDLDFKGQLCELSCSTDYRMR
T1 sequence (Q96LA8 with tags, fused parts or gaps): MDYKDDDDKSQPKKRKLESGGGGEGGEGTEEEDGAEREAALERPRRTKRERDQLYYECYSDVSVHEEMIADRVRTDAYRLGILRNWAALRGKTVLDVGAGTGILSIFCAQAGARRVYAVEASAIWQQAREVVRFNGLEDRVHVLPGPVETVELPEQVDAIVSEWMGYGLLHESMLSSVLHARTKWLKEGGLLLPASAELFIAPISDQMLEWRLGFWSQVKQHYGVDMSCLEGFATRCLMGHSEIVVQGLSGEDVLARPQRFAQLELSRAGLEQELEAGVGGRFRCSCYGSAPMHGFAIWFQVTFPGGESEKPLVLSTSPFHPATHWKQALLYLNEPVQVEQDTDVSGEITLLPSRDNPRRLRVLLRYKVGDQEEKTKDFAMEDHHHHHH

The term IC50 denotes the concentration that gives 50% inhibition. With `CNCCN(C)Cc1c[nH]nc1-c1ccc(F)cc1` [Compound 2, N^1-((3-(4-fluorophenyl)-1H-pyrazol-4-yl)methyl)-N^1,N^2-dimethylethane-1,2-diamine], the IC50 is 96.1 nM at human PRMT6 (setting [1]) and 57.6 nM against human PRMT1.

As to `CCCc1ccc(-c2n[nH]cc2CN(C)CCNC)cc1` [Compound 20], the values for the IC50 against human PRMT6 (setting [1]) and against human PRMT1 were 7.79 nM and 4.12 nM, respectively.

`CNCCN(C)Cc1c[nH]nc1-c1cccc([N+](=O)[O-])c1` [Compound 21]: the IC50 on human PRMT6 (setting [1]) came out at 12.2 nM; on human PRMT1, 57.9 nM.

For `CNCCN(C)Cc1c[nH]nc1-c1cccc(C#N)c1` [Compound 22], the IC50 at human PRMT6 (setting [1]) was 11.9 nM; against human PRMT1 it was 166 nM.

Take `CNCCN(C)Cc1c[nH]nc1-c1ccccc1OC` [Compound 23]: the IC50 on human PRMT6 (setting [1]) worked out at 183 nM; on human PRMT1, 194 nM.

For `CNCCN(C)Cc1c[nH]nc1-c1cccc(OC)c1` [Compound 24], the IC50 against human PRMT6 (setting [1]) turned out to be 26.2 nM; at human PRMT1, 85.6 nM.

As to `CNCCN(C)Cc1c[nH]nc1-c1ccc(OC)cc1` [Compound 25], the IC50 came to 10.9 nM against human PRMT6 (setting [1]) and 20.9 nM at human PRMT1.

Turning to `CNCCN(C)Cc1c[nH]nc1-c1cccc(O)c1` [Compound 26], the figures for the IC50 against human PRMT6 (setting [1]) and against human PRMT1 were 22.5 nM and 197 nM, respectively.

Take `CNCCN(C)Cc1c[nH]nc1-c1ccc(O)cc1` [Compound 27]: the IC50 came to 18.5 nM against human PRMT6 (setting [1]) and 97.7 nM at human PRMT1.

Consider `CNCCN(C)Cc1c[nH]nc1-c1ccc(CO)cc1` [Compound 28], for which the IC50 is 9.1 nM against human PRMT6 (setting [1]) and 11.1 nM at human PRMT1.

As to `CNCCN(C)Cc1c[nH]nc1-c1ccc(C)cc1C` [Compound 29], the IC50 against human PRMT6 (setting [1]) worked out at 61.7 nM; against human PRMT1, 178 nM.

Take `CNCCN(C)Cc1cn(CCCC(O)CO)nc1-c1ccc(F)cc1` (stereo not shown) [Compound 30]: the IC50 against human PRMT6 (setting [1]) is 565 nM; against human PRMT1 it was 3560 nM.

Take `CNCCN(C)Cc1cnn(CCCC(O)CO)c1-c1ccc(F)cc1` (stereo not shown) [Compound 31]: the figures for the IC50 against human PRMT6 (setting [1]) and against human PRMT1 were 110 nM and 779 nM, respectively.

In the case of `CNCCN(C)Cc1c[nH]nc1-c1ccc(N)cc1` [Compound 33], the values for the IC50 at human PRMT6 (setting [1]) and against human PRMT1 were 37.9 nM and 153 nM, respectively.

Take `CNCCN(C)Cc1c[nH]nc1-c1ccc(Oc2ccccc2)cc1` [Compound 37]: the IC50 at human PRMT6 (setting [1]) is 3.29 nM; against human PRMT1, 2.74 nM.

Take `CNCCN(C)Cc1c[nH]nc1-c1ccccc1C(F)(F)F` [Compound 38]: the results for the IC50 at human PRMT6 (setting [2]) and against human PRMT1 were 352 nM and 1830 nM, respectively.

With `CCNC(=O)c1cccc(-c2n[nH]cc2CN(C)CCNC)c1` [Compound 43], the IC50 worked out at 51.9 nM at human PRMT6 (setting [1]) and 338 nM against human PRMT1.

In the case of `CNCCN(C)Cc1c[nH]nc1-c1ccc(C(=O)c2ccccc2)cc1` [Compound 45], the IC50 on human PRMT6 (setting [2]) was determined as 7.54 nM; against human PRMT1, 8.34 nM.

As to `CNCCN(C)Cc1c[nH]nc1-c1ccccc1-c1ccccc1` [Compound 46], the IC50 on human PRMT6 (setting [2]) was determined as 3220 nM; at human PRMT1 it was 2500 nM.

For `CNCCN(C)Cc1c[nH]nc1-c1ccc(F)cc1F` [Compound 49], the IC50 against human PRMT6 (setting [1]) amounted to 39.3 nM; on human PRMT1, 165 nM.

As to `CNCCN(C)Cc1c[nH]nc1-c1cc(F)ccc1F` [Compound 50], the IC50 against human PRMT6 (setting [1]) is 42.8 nM; against human PRMT1, 149 nM.

Take `CNCCN(C)Cc1c[nH]nc1-c1ccc(F)c(F)c1` [Compound 51]: the IC50 against human PRMT6 (setting [1]) stood at 9.95 nM; against human PRMT1 it was 12.9 nM.

With `CNCCN(C)Cc1c[nH]nc1-c1ccc(OC)c(F)c1` [Compound 52], the figures for the IC50 against human PRMT6 (setting [1]) and on human PRMT1 were 8.92 nM and 12.6 nM, respectively.

As for `CNCCN(C)Cc1c[nH]nc1-c1ccc(OC)cc1OC` [Compound 55], the IC50 on human PRMT6 (setting [2]) came to 87 nM; on human PRMT1, 190 nM.

Consider `CNCCN(C)Cc1c[nH]nc1-c1c(OC)cccc1OC` [Compound 56], for which the IC50 is 1900 nM at human PRMT6 (setting [2]) and 5850 nM against human PRMT1.

Consider `CNCCN(C)Cc1c[nH]nc1-c1cccc2ccccc12` [Compound 57], for which the results for the IC50 against human PRMT6 (setting [1]) and against human PRMT1 were 10.3 nM and 7.07 nM, respectively.

In the case of `CNCCN(C)Cc1c[nH]nc1-c1ccc2ccccc2c1` [Compound 58], the IC50 on human PRMT6 (setting [1]) was 6.14 nM; on human PRMT1, 5.73 nM.

`CNCCN(C)Cc1cn(CCC(O)CO)nc1-c1ccc(F)cc1` (stereo not shown) [Compound 59]: the IC50 against human PRMT6 (setting [1]) came out at 627 nM; against human PRMT1, 5860 nM.

Take `CCN(CCN)Cc1c[nH]nc1-c1ccc(F)cc1` [Compound 62]: the IC50 on human PRMT6 (setting [1]) is 7.87 nM; on human PRMT1, 13.9 nM.

Turning to `CCCN(CCN)Cc1c[nH]nc1-c1ccc(F)cc1` [Compound 63], the results for the IC50 at human PRMT6 (setting [1]) and on human PRMT1 were 1150 nM and 1540 nM, respectively.

For `CN(CCN)Cc1cnn(CCO)c1-c1ccc(F)cc1` [Compound 65], the IC50 was determined as 423 nM against human PRMT6 (setting [1]) and 1940 nM on human PRMT1.

Regarding `CN(CCN)Cc1cn(CCO)nc1-c1ccc(F)cc1` [Compound 66], the values for the IC50 on human PRMT6 (setting [1]) and at human PRMT1 were 1040 nM and 2410 nM, respectively.

Regarding `CN(CCN)Cc1c[nH]nc1-c1ccc(C#N)cc1` [Compound 68], the IC50 against human PRMT6 (setting [1]) was found to be 6.7 nM; against human PRMT1, 6.04 nM.

On to `CNCCN(C)Cc1c[nH]nc1-c1cc(C(C)C)cc(C(C)C)c1` [Compound 229, N^1-((3-(3,5-diisopropylphenyl)-1H-pyrazol-4-yl)methyl)-N^1,N^2-dimethylethane-1,2-diamine], for which the values for the IC50 at human PRMT6 (setting [1]) and at human PRMT1 were 201 nM and 59.7 nM, respectively.

For the compound `CNCCN(C)Cc1c[nH]nc1-c1ccc(Oc2cccc(OC)c2)cc1` [Compound 230], the IC50 turned out to be 2.19 nM on human PRMT6 (setting [1]) and 3.43 nM against human PRMT1.

Regarding `CNCCN(C)Cc1c[nH]nc1-c1ccc(Oc2cccc(F)c2)cc1` [Compound 231], the IC50 at human PRMT6 (setting [1]) turned out to be 2.97 nM; against human PRMT1, 4.08 nM.

Consider `CNCCN(C)Cc1c[nH]nc1-c1ccc(Oc2ccccc2)c(C(=O)NC)c1` [Compound 232], for which the IC50 at human PRMT6 (setting [1]) is 16.6 nM; against human PRMT1 it was 25 nM.

As for `CNCCN(C)Cc1c[nH]nc1-c1ccc(Oc2ccccc2)c(C(=O)N(C)C)c1` [Compound 233], the IC50 at human PRMT6 (setting [1]) was determined as 18.2 nM; against human PRMT1 it was 29.3 nM.

For the compound `CC(C)Cc1cccc(-c2n[nH]cc2CN(C)CCN)c1` [Compound 235], the IC50 at human PRMT6 (setting [1]) came out at 176 nM; at human PRMT1, 8.35 nM.

Turning to `CNCCN(C)Cc1c[nH]nc1-c1ccc(OCCCO)cc1` [Compound 236], the IC50 on human PRMT6 (setting [1]) came to 14.7 nM; on human PRMT1, 9.17 nM.

As for `CNCCN(C)Cc1c[nH]nc1-c1ccc(Oc2ccccc2F)cc1` [Compound 237], the results for the IC50 against human PRMT6 (setting [1]) and on human PRMT1 were 2.13 nM and 2.06 nM, respectively.

With `CNCCN(C)Cc1n[nH]cc1-c1ccc(Oc2cccc(OC)c2)cc1` [Compound 239], the half-maximal inhibitory concentration (IC50) turned out to be 1.01 nM at human PRMT6 (setting [1]) and 2.51 nM at human PRMT1.

Regarding `CNCCN(C)Cc1n[nH]cc1-c1ccc(Oc2ccccc2)c(C(=O)NC)c1` [Compound 240], the IC50 against human PRMT6 (setting [1]) came out at 14.6 nM; on human PRMT1 it was 38.2 nM.

With `CNCCN(C)Cc1n[nH]cc1-c1ccc(Oc2ccccc2)c(C(=O)N(C)C)c1` [Compound 241], the IC50 worked out at 34.1 nM at human PRMT6 (setting [1]) and 52.2 nM at human PRMT1.

Take `CNCCN(C)Cc1n[nH]cc1-c1cc(C(C)C)cc(C(C)C)c1` [Compound 242]: the IC50 at human PRMT6 (setting [1]) was more than 1000 nM; at human PRMT1 it was 376 nM.

As for `CNCCN(C)Cc1cn(C)nc1-c1ccc(OC(C)C)cc1` [Compound 243, N^1-((3-(4-isopropoxyphenyl)-1-methyl-1H-pyrazol-4-yl)methyl)-N1,N2-dimethylethane-1,2-diamine], the IC50 amounted to 286 nM on human PRMT6 (setting [1]) and 17.7 nM against human PRMT1.

Regarding `CNCCN(C)Cc1cn(Cc2ccncc2)nc1-c1ccc(OC(C)C)cc1` [Compound 245], the IC50 is 224 nM against human PRMT6 (setting [1]) and 35.3 nM against human PRMT1.

On to `CNCCN(C)Cc1cn(Cc2cccnc2)nc1-c1ccc(OC(C)C)cc1` [Compound 246], for which the IC50 on human PRMT6 (setting [1]) amounted to 318 nM; against human PRMT1 it was 61.5 nM.

With `CNCCN(C)Cc1cn(Cc2ccccn2)nc1-c1ccc(OC(C)C)cc1` [Compound 247], the figures for the IC50 against human PRMT6 (setting [1]) and against human PRMT1 were 805 nM and 147 nM, respectively.

As for `CNCCN(C)Cc1cn(CC(=O)OC)nc1-c1ccc(OC(C)C)cc1` [Compound 248], the results for the IC50 against human PRMT6 (setting [1]) and at human PRMT1 were 831 nM and 215 nM, respectively.

As for `CNCCN(C)Cc1cnn(CC(=O)OC)c1-c1ccc(OC(C)C)cc1` [Compound 249], the IC50 against human PRMT6 (setting [1]) turned out to be 428 nM; against human PRMT1 it was 109 nM.

On to `CNCCN(C)Cc1cn(CC(=O)O)nc1-c1ccc(OC(C)C)cc1` [Compound 250], for which the IC50 at human PRMT6 (setting [1]) was 4260 nM; against human PRMT1 it was 737 nM.

`CNCCN(C)Cc1cn(CC(N)=O)nc1-c1ccc(OC(C)C)cc1` [Compound 251]: the IC50 against human PRMT6 (setting [1]) worked out at 2370 nM; against human PRMT1, 275 nM.

As for `CCn1ncc(CN(C)CCNC)c1-c1ccc(OC(C)C)cc1` [Compound 252], the IC50 at human PRMT6 (setting [1]) is 102 nM; against human PRMT1 it was 25.8 nM.

With `CNCCN(C)Cc1cn(CCOC)nc1-c1ccc(OC(C)C)cc1` [Compound 253, N1-((3-(4-isopropoxyphenyl)-1-(2-methoxyethyl)-1H-pyrazol-4-yl)methyl)-N1,N2-dimethylethane-1,2-diamine hydrochloride], the IC50 amounted to 748 nM against human PRMT6 (setting [1]) and 113 nM at human PRMT1.

With `CNCCN(C)Cc1cn(C2CCC2)nc1-c1ccc(OC(C)C)cc1` [Compound 254, N1-((1-cyclobutyl-3-(4-isopropoxyphenyl)-1H-pyrazol-4-yl)methyl)-N1,N2-dimethylethane-1,2-diamine hydrochloride], the IC50 against human PRMT6 (setting [1]) is 201 nM; on human PRMT1 it was 29.3 nM.

The values above are taken from patent US9776972B2, “Pyrazole derivatives as arginine methyltransferase inhibitors and uses thereof” (priority 2013, dated 2017).
